According to PubChem BioAssay AID1259411 (Chemical Carcinogenesis Research Information System (CCRIS), 2018):
Calls of active or inactive are those of the source. How the calls were made is not given here.

Tested on: rodent carcinogenicity bioassays, tumor incidence
Experiment: CCRIS carcinogenicity studies
Procedure, shortened: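 NCI-built, expert-reviewed records of carcinogenicity and related test outcomes (mutagenicity, tumor promotion/inhibition) compiled from published and report sources, historical span 1985-2011, not updated.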

## S=c1[nH]c2ccccc2s1
Species: MOUSE, Strain/Sex: B6C3F1/FEMALE, Route: GAVAGE, Dose: 0, 375, 750 MG/KG IN CORN OIL 5D/WK FOR 103 WK (STUDY DURATION: 104 WK), Dose: 0, 375, 750 MG/KG IN CORN OIL 5D/WK FOR 103 WK (STUDY DURATION: 104 WK), Tumor Site: Type of Lesion: LIVER: HEPATOCELLULAR ADENOMA OR CARCINOMA
  carcinogen call: equivocal
Species: MOUSE, Strain/Sex: B6C3F1/MALE, Route: GAVAGE, Dose: 0, 375, 750 MG/KG IN CORN OIL 5D/WK FOR 103 WK (STUDY DURATION: 104 WK), Dose: 0, 375, 750 MG/KG IN CORN OIL 5D/WK FOR 103 WK (STUDY DURATION: 104 WK)
  carcinogen call: inactive; negative
Species: RAT, Strain/Sex: F344/FEMALE, Route: GAVAGE, Dose: 0, 188, 375 MG/KG IN CORN OIL 5D/WK FOR 103 WK (STUDY DURATION: 105 WK), Dose: 0, 188, 375 MG/KG IN CORN OIL 5D/WK FOR 103 WK (STUDY DURATION: 105 WK), Tumor Site: Type of Lesion: PITUITARY GLAND: ADENOMA, PITUITARY GLAND: ADENOMA OR ADENOCARCINOMA, ADRENAL GLAND: PHEOCHROMOCYTOMA, Tumor Site: Type of Lesion: PITUITARY GLAND: ADENOMA, PITUITARY GLAND: ADENOMA OR ADENOCARCINOMA, ADRENAL GLAND: PHEOCHROMOCYTOMA
  carcinogen call: active; positive
Species: RAT, Strain/Sex: F344/MALE, Route: GAVAGE, Dose: 0, 375, 750 MG/KG IN CORN OIL 5D/WK FOR 103 WK (STUDY DURATION: 105 WK), Dose: 0, 375, 750 MG/KG IN CORN OIL 5D/WK FOR 103 WK (STUDY DURATION: 105 WK), Tumor Site: Type of Lesion: HEMATOPOIETIC SYSTEM: MONONUCLEAR CELL LEUKEMIA, PANCREAS: ACINAR CELL ADENOMA
  carcinogen call: active; positive

## O=[N+]([O-])c1c(Cl)c(Cl)c(Cl)c(Cl)c1Cl
Species: MOUSE, Route: DERMAL, Tumor Site: Type of Lesion: INTEGUMENTARY SYSTEM (SKIN)
  carcinogen call: active; positive
Species: MOUSE, Route: ORAL, Tumor Site: Type of Lesion: LIVER
  carcinogen call: active; positive
Species: MOUSE, Strain/Sex: B6C3F1/FEMALE, Route: ORAL, Dose: 0, 4093, 8187 PPM IN DIET, TWA, Dose: 0, 4093, 8187 PPM IN DIET, TWA
  carcinogen call: inactive; negative
Species: MOUSE, Strain/Sex: B6C3F1/MALE, Route: ORAL, Dose: 0, 2500, 5000 PPM IN DIET FOR 103 WK (STUDY DURATION = 104 WK), Dose: 0, 2500, 5000 PPM IN DIET FOR 103 WK (STUDY DURATION = 104 WK)
  carcinogen call: inactive; negative
Species: MOUSE, Strain/Sex: B6C3F1/MALE, Route: ORAL, Dose: 0, 2606, 5213 PPM IN DIET, TWA, Dose: 0, 2606, 5213 PPM IN DIET, TWA
  carcinogen call: inactive; negative
Species: RAT, Strain/Sex: OSBORNE-MENDEL/FEMALE, Route: ORAL, Dose: 0, 7875, 14635 PPM IN DIET, TWA, Dose: 0, 7875, 14635 PPM IN DIET, TWA
  carcinogen call: inactive; negative
Species: RAT, Strain/Sex: OSBORNE-MENDEL/MALE, Route: ORAL, Dose: 0, 5417, 10064 PPM IN DIET, TWA, Dose: 0, 5417, 10064 PPM IN DIET, TWA
  carcinogen call: inactive; negative

## O=C(CCl)c1ccccc1
Species: MOUSE, Strain/Sex: B6C3F1/FEMALE, Route: INHALATION, Dose: 0, 2, 4 MG/M3 6 HR/D 5 D/WK FOR 103 WK (STUDY DURATION: 105 WK), Dose: 0, 2, 4 MG/M3 6 HR/D 5 D/WK FOR 103 WK (STUDY DURATION: 105 WK)
  carcinogen call: inactive; negative
Species: MOUSE, Strain/Sex: B6C3F1/MALE, Route: INHALATION, Dose: 0, 2, 4 MG/M3 6 HR/D 5 D/WK FOR 103 WK (STUDY DURATION: 105 WK), Dose: 0, 2, 4 MG/M3 6 HR/D 5 D/WK FOR 103 WK (STUDY DURATION: 105 WK)
  carcinogen call: inactive; negative
Species: RAT, Strain/Sex: F344/FEMALE, Route: INHALATION, Dose: 0, 1, 2 MG/M3 6 HR/D 5 D/WK FOR 103 WK (STUDY DURATION: 105 WK), Dose: 0, 1, 2 MG/M3 6 HR/D 5 D/WK FOR 103 WK (STUDY DURATION: 105 WK), Tumor Site: Type of Lesion: MAMMARY GLAND: FIBROADENOMA
  carcinogen call: equivocal
Species: RAT, Strain/Sex: F344/MALE, Route: INHALATION, Dose: 0, 1, 2 MG/M3 6 HR/D 5 D/WK FOR 103 WK (STUDY DURATION: 105 WK), Dose: 0, 1, 2 MG/M3 6 HR/D 5 D/WK FOR 103 WK (STUDY DURATION: 105 WK)
  carcinogen call: inactive; negative

## CCCCNC(=O)OCC#CI
Species: Mouse, Strain/Sex: CD-1/Female (50/Group), Route: Oral, Dose: 0, 20, 50, 150 mg/kg/day of 97% 3-iodo-2-propynyl butyl carbamate in diet for 78 wk, study duration 78 wk, Dose: 0, 20, 50, 150 mg/kg/day of 97% 3-iodo-2-propynyl butyl carbamate in diet for 78 wk, study duration 78 wk
  carcinogen call: inactive; negative
Species: Mouse, Strain/Sex: CD-1/Male (50/Group), Route: Oral, Dose: 0, 20, 50, 150 mg/kg/day of 97% 3-iodo-2-propynyl butyl carbamate in diet for 78 wk, study duration 78 wk, Dose: 0, 20, 50, 150 mg/kg/day of 97% 3-iodo-2-propynyl butyl carbamate in diet for 78 wk, study duration 78 wk
  carcinogen call: inactive; negative
Species: Rat, Strain/Sex: Sprague-Dawley/Female (50/group), Route: Oral, Dose: 0, 20, 40, 80 mg/kg/day of 97% 3-iodo-2-propynyl butyl carbamate in diet for 104 wk, study duration 104 wk, Dose: 0, 20, 40, 80 mg/kg/day of 97% 3-iodo-2-propynyl butyl carbamate in diet for 104 wk, study duration 104 wk
  carcinogen call: inactive; negative
Species: Rat, Strain/Sex: Sprague-Dawley/Male (50/group), Route: Oral, Dose: 0, 20, 40, 80 mg/kg/day of 97% 3-iodo-2-propynyl butyl carbamate in diet for 104 wk, study duration 104 wk, Dose: 0, 20, 40, 80 mg/kg/day of 97% 3-iodo-2-propynyl butyl carbamate in diet for 104 wk, study duration 104 wk
  carcinogen call: inactive; negative

## C/C=C/Cl
Species: MOUSE, Strain/Sex: ICR/FEMALE, Route: GAVAGE, Dose: 1.0 MG IN 0.1 ML TRIOCTANOIN 1/WK, Tumor Site: Type of Lesion: FORESTOMACH: SQUAMOUS CELL CARCINOMA
  carcinogen call: active; positive

## CCCCOC(=O)c1ccc(O)cc1
Species: MOUSE, Strain/Sex: ICR/FEMALE, Route: ORAL, Dose: 0, 0.15, 0.3, 0.6% IN DIET FOR 102 WK (STUDY DURATION: 106 WK), Dose: 0, 0.15, 0.3, 0.6% IN DIET FOR 102 WK (STUDY DURATION: 106 WK)
  carcinogen call: inactive; negative
Species: MOUSE, Strain/Sex: ICR/MALE, Route: ORAL, Dose: 0, O.15, 0.3, 0.6% IN DIET FOR 102 WK (STUDY DURATION: 106 WK), Dose: 0, O.15, 0.3, 0.6% IN DIET FOR 102 WK (STUDY DURATION: 106 WK)
  carcinogen call: inactive; negative

## Cc1ccccc1N=O
Species: RAT, Strain/Sex: F344/MALE, Route: ORAL, Dose: 3.38 G/KG- DIET FOR 72 WK (TOTAL DOSE 0.21 MOL/RAT), Tumor Site: Type of Lesion: LIVER: HEPATOMA, URINARY BLADDER: PAPILLOMA, PERITONEAL CAVITY: MESOTHELIOMA, SARCOMA, SPLEEN: FIBROMA, INTEGUMENTARY SY, Tumor Site: Type of Lesion: LIVER: HEPATOMA, URINARY BLADDER: PAPILLOMA, PERITONEAL CAVITY: MESOTHELIOMA, SARCOMA, SPLEEN: FIBROMA, INTEGUMENTARY SY
  carcinogen call: active; positive

## O=C1NC(=O)C(=O)C(=O)N1
Species: Rat, Strain/Sex: WBN/Kob (Diabetic)/Female (17/group), Route: Intravenous, Dose: 0, 40 mg/kg once, study duration 75 wks, Tumor Site: Type of Lesion: Forestomach: squamous cell carcinoma
  carcinogen call: active; positive
Species: Rat, Strain/Sex: WBN/Kob (Diabetic)/Male (31/ group), Route: Intravenous, Dose: 0, 50 mg/kg once, study duration 75 wks, Tumor Site: Type of Lesion: Forestomach: squamous cell carcinoma
  carcinogen call: active; positive

## [Be]
Species: RAT, Strain/Sex: WISTAR/FEMALE, Route: INTRATRACHEAL, Dose: 0, 0.5, 2.5 MG, SINGLE DOSE IN SALINE SUSPENSION, Tumor Site: Type of Lesion: LUNG
  carcinogen call: active; positive
Species: RAT, Strain/Sex: WISTAR/FEMALE, Route: INTRATRACHEAL, Dose: 0.5, 2.5 MG/RAT IN SALINE SUSPENDED ONCE, Tumor Site: Type of Lesion: LUNG
  carcinogen call: active; positive

## NNc1nc(-c2ccc([N+](=O)[O-])o2)cs1
Species: RAT, Strain/Sex: SPRAGUE-DAWLEY/FEMALE, Route: ORAL, Dose: 0, 0.089% OF DIET FOR 46 WK FOLLOWED BY CONTROL DIET FOR 20 WK FOR A TOTAL DOSE OF 0, 4.2 G (STUDY DURATION: 66 WK), Dose: 0, 0.089% OF DIET FOR 46 WK FOLLOWED BY CONTROL DIET FOR 20 WK FOR A TOTAL DOSE OF 0, 4.2 G (STUDY DURATION: 66 WK), Tumor Site: Type of Lesion: MAMMARY GLAND: ADENOCARCINOMA, MAMMARY GLAND: ADENOFIBROMA OR FIBROADENOMA
  carcinogen call: active; positive
